Laboratory results as given in patent US20260083864A1, “CONTRAST AGENTS FOR USE IN DIAGNOSTIC COMPUTED TOMOGRAPHY IMAGING” (Bayer Aktiengesellschaft, priority 2022, published 2026).
Read-outs that look alike come from different tables or passages of the source.

Legend:
[1] = of the administered dose, literature; cited from earlier work
[2] = Water solubility in aqueous buffer; conditions: aqueous buffer 10 mM Tris-HCl, pH 7.4, 20° C.
Method: The solid compounds were added stepwise to the buffer solution. More substance is added once all the suspended material is dissolved until an equilibrium between undissolved and dissolved substance is reached. The suspension was mixed using a shaker (Heidolph Reax 2000) and treated 5 min in an ultrasound bath (Bandelin, Sonorex Super RK255H).

[3] = Complex stability (transmetallation) against Zn2+ in phosphate buffer; conditions: 72 hours, 2.5 mM Zn^2+, 26 mM phosphate buffer, 37° C., pH 7.4
Excerpt: If test compounds are instable under these conditions, transmetallation during this test would lead to the formation of the Zn^2+ complex of the test item, while Gd^3+ is released and precipitated as highly insoluble GdPO4.

[4] = Relaxivity measurements at 1.41 T in water; assay type: physicochemical; conditions: 37° C., normalized to Gd
In short: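 T1 by inversion recovery and T2 by CPMG at 1.41 T (60 MHz), 37° C, relaxation delay ≥5×T1. Three Gd concentrations between 0.05 and 2 mM; relaxivities derived from measured relaxation rates in water.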

[5] = Relaxivity measurements at 1.41 T in human plasma; assay type: physicochemical; conditions: 37° C., normalized to Gd
In short: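 T1 determined by inversion recovery (8 inversion-time steps) and T2 by CPMG sequence, both with relaxation delay ≥5×T1. Each relaxivity used three Gd concentrations between 0.05 and 2 mM. Relaxivities were derived from relaxation rates measured in water and plasma.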

OATP1B1 = biological target: T1, OATP1B1 (Homo sapiens, UniProt Q9Y6L6); experiment: Uptake into stable transfected OATP1B1 HEK 293 cells; assay type: cell-based; conditions: for Uptake into OATP1B1-HEK 293 cells: 40 min incubation, relative to RC1 (Gd-EOB-DTPA); for Inhibition Rifampicine: uptake into OATP1B1-HEK 293 cells
T1 sequence (Q9Y6L6 1-691): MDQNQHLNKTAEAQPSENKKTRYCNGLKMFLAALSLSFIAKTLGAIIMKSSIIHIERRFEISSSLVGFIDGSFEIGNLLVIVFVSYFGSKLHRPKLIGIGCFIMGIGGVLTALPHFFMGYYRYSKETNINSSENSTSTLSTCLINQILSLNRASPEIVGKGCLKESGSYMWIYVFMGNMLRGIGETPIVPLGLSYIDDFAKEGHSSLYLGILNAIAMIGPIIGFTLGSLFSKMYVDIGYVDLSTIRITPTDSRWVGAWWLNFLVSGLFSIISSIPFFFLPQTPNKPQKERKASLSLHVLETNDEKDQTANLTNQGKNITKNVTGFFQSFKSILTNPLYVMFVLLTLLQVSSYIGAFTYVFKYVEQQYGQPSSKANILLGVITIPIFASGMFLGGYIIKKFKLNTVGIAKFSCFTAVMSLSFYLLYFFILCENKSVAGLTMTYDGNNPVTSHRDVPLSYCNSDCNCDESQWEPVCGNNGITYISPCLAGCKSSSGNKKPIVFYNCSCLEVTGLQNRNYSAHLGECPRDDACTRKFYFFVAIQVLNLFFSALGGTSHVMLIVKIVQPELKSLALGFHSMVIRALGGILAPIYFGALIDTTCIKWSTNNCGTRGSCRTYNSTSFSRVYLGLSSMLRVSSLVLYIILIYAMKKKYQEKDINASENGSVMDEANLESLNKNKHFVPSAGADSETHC
In short: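 Uptake measured in triplicate after a 40 min, unshaken exposure of OATP1B1-expressing HEK293 cells to 100 µM (final) compound in transport buffer. Cold PBS wash stopped uptake; Gd-EOB-DTPA served as reference standard within each plate.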

OATP1B3 = biological target: T2, OATP1B3 (Homo sapiens, UniProt Q9NPD5); experiment: Uptake into stable transfected OATP1B3 HEK 293 cells; assay type: cell-based; conditions: for Uptake into OATP1B3-HEK 293 cells: 40 min incubation, relative to RC1 (Gd-EOB-DTPA); for Inhibition Rifampicine: uptake into OATP1B3-HEK 293 cells
T2 sequence (Q9NPD5 1-702): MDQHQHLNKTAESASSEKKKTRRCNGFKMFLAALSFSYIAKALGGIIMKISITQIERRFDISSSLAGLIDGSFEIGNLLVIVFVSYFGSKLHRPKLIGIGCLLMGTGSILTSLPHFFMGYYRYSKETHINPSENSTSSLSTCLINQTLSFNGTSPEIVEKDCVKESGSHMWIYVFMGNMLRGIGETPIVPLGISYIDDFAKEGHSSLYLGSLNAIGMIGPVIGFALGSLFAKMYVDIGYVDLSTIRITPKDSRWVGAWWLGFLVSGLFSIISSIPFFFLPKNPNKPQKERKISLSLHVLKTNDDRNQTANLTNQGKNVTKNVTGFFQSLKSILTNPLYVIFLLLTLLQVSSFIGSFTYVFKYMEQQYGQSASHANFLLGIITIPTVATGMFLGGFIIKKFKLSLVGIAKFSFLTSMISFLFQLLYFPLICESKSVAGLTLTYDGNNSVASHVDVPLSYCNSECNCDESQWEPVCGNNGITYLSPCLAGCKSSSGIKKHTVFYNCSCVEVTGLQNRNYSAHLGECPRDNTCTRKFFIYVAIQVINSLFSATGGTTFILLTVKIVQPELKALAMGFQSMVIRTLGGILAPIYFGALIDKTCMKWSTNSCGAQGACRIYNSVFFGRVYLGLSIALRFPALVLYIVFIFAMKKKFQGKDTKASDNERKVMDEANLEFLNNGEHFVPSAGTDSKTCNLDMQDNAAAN
In short: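 HEK 293 cells stably transfected with human OATP1B3 were incubated for 40 min with test items at 100 μM final in transport buffer, in triplicate, then washed with cold PBS. Gadoxetate (Gd-EOB-DTPA) served as the reference standard on the same plate.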

[6] = Partition coefficient (log P butanol/buffer); assay type: physicochemical; conditions: 1-butanol / 50 mM Tris-HCl, pH 7.4, room temperature
[7] = system: freshly isolated rat hepatocytes; experiment: Uptake into freshly isolated rat hepatocytes; conditions: for Uptake rat hepatocytes: 100 μmol Gd/L, 10 min, 37° C., relative to RC1 (Gd-EOB-DTPA); for Inhibition Rifampicine: rat hepatocyte uptake, test item and Rifampicine 1:1, each 100 μM
[8] = reference compounds, 1.5 T, 37° C., from Rohrer et al.; cited from earlier work
[9] = reference compounds, 1.5 T, 37° C., bovine plasma instead of human plasma, from Rohrer et al.; cited from earlier work

| Structure (SMILES) | Secreted / excreted into the bile [1] | Solubility [2] [mM] | Transmetallation stability [3] [%] | r1 water [4] [L/mmol/s] | r1 human plasma [5] [L/mmol/s] | Uptake into OATP1B1-HEK 293 cells (OATP1B1) | Inhibition Rifampicine (OATP1B1) [% inhibition] | Uptake into OATP1B3-HEK 293 cells (OATP1B3) | Inhibition Rifampicine (OATP1B3) [% inhibition] | Log P (partition coefficient butanol/buffer) [6] | Uptake rat hepatocytes [7] | Inhibition Rifampicine [7] [% inhibition] | r1 water [8] [L/mmol/s] | r1 plasma (r1 human plasma) [9] [L/mmol/s] |
| --- | --- | --- | --- | --- | --- | --- | --- | --- | --- | --- | --- | --- | --- | --- |
| CCOc1ccc(C[C@@H](CN(CCN(CC(=O)[O-])CC(=O)[O-])CC(=O)[O-])N(CC(=O)[O-])CC(=O)[O-])cc1.[Gd+3].[H+].[H+] [Gd-EOB-DTPA, gadoxetic acid] | up to 50% |  |  |  |  |  |  |  |  |  |  |  |  |  |
| CCOCCOc1ccc(CC(C(=O)O)N2CCN(CC(=O)[O-])CCN(C(CC)C(=O)[O-])CCN(CC(=O)[O-])CC2)cc1.[Gd+3] (single isomer, unassigned) [Example 8, gadolinium 2-[7-{1-carboxy-2-[4-(2-ethoxyethoxy)phenyl]ethyl}-4,10-bis(carboxylatomethyl)-1,4,7,10-tetraazacyclododecan-1-yl]butanoate] |  | 117 | 102 | 4.5 | 7.2 | 271 % of RC1 | 90 | 90 % of RC1 | 99 | −1.04 | 83 % of RC1 | 98 |  |  |
| CCCCOc1cccc(CCC[C@@H](C(=O)O)N2CCN([C@@H](CO)C(=O)[O-])CCN([C@@H](CO)C(=O)[O-])CCN([C@@H](CO)C(=O)[O-])CC2)c1.[Gd+3] [Example 34, gadolinium (2S,2′S,2″S)-2,2′,2″-{10-[(1S)-4-(3-butoxyphenyl)-1-carboxybutyl]-1,4,7,10-tetraazacyclododecane-1,4,7-triyl}tris(3-hydroxypropanoate)] |  | >236 | 101 | 4.9 | 18.0 | 947 % of RC1 | 96 | 140 % of RC1 | 98 | 0.12 | 98 % of RC1 | 90 |  |  |
| O=C([O-])CN1CCN(CC(=O)[O-])CCN([C@H](CO)[C@H](O)CO)CCN(CC(=O)[O-])CC1.[Gd+3] (racemic) [RC3, gadobutrol, reference compound] |  |  |  |  |  |  |  |  |  | −2.22 |  | 0 | 3.3 | 5.2 |
| CCOCCOCCOc1ccc(CCCC(C(=O)O)N2CCN(CC(=O)[O-])CCN(CC(=O)[O-])CCN(CC(=O)[O-])CC2)cc1.[Gd+3] (stereo not drawn) [Example 25, gadolinium 2,2′,2″-{10-[1-carboxy-4-{4-[2-(2-ethoxyethoxy)ethoxy]phenyl}butyl]-1,4,7,10-tetraazacyclododecane-1,4,7-triyl}triacetate] |  | 306 | 103 | 4.6 | 7.5 | 30 % of RC1 | 75 | 58 % of RC1 | 93 | −1.00 | 82 % of RC1 | 96 |  |  |
| CCOCCOCCOc1ccc(CC(C(=O)[O-])N2CCN(CC(=O)[O-])CCN(C(CC)C(=O)O)CCN(CC(=O)[O-])CC2)cc1.[Gd+3] (stereo not drawn) [Example 43, gadolinium-2-{4,10-bis(carboxylatomethyl)-7-[1-carboxypropyl]-1,4,7,10-tetraazacyclododecan-1-yl}-3-{4-[2-(2-ethoxyethoxy)ethoxy]phenyl}propanoate] |  | >209 | 102 | 4.8 | 6.9 | 122 % of RC1 | 62 | 111 % of RC1 | 99 | −1.19 | 90 % of RC1 | 97 |  |  |
| O=C([O-])CN(CCN(CC(=O)[O-])CC(=O)[O-])CCN(CC(=O)[O-])C(COCc1ccccc1)C(=O)[O-].[Gd+3].[H+].[H+] (stereo not drawn) [Gd-BOPTA, gadobenic acid] | 3-to-5% |  |  |  |  |  |  |  |  |  |  |  |  |  |
| O=C([O-])CN(CCN(CC(=O)[O-])CC(=O)[O-])CCN(CC(=O)[O-])C(COCc1ccccc1)C(=O)[O-].[Gd+3].[H+].[H+] (stereo not drawn) [RC2, gadobenic acid, reference compound] |  |  | 14 |  |  | 31 % of RC1 | 61 | 4 % of RC1 | 87 | −2.07 | 9 % of RC1 | 79 | 3.3 | 4.1 |
